Tested on: upper airway collapsibility in anaesthetized, spontaneously breathing pigs
Experiment: pig model of obstructive sleep apnea (OSA): upper airway collapsibility under negative pressure
Type: in vivo, German Landrace pigs
Text: The therapeutic potential of the combination of an α2-Adrenoceptor subtype C (alpha-2C) antagonists with a TASK1/3 channel blocker according to the present invention in sleep apnea can be assessed preclinically in a pig model of obstructive sleep apnea (OSA).
Using negative pressure, it is possible to induce collapse and thus obstruction of the upper respiratory tract in anaesthetized, spontaneously breathing pigs (Wirth K. J. et al., Sleep 36(5)(2013) pp. 699-708).
German Landrace pigs are used for the model. The pigs are anaesthetized and tracheotomized. Two tracheal cannulas are inserted into the trachea, one into the rostral part and the other into the caudal part of the trachea. Using a connection piece, the rostral cannula is connected to a tube to the negative pressure device and to the distal tracheal cannula. The distal tracheal cannula is additionally connected to a tube with an open end to atmosphere via a connection piece that served for free tracheal breathing, circumventing the upper airway. By appropriate opening and clamping of those tubes breathing can be switched from nasal breathing to breathing through the caudal tracheal cannula, circumventing the upper airway, and the (isolated) upper airway can be connected to the negative pressure device, causing airflow in the inspiratory direction.
At certain points in time, the collapsibility of the upper respiratory tract is tested by having the pig breathe via the caudal cannula and applying negative pressures of −50, −100 and −150 cm water head (cm H2O) to the upper respiratory tract. This causes the upper respiratory tract to collapse, which manifests itself in an interruption of the airflow and a pressure drop in the tube system. This test is conducted prior to the administration of the test substance and at certain intervals after the administration of the test substance. An appropriately effective test substance can prevent this collapse of the respiratory tract in the inspiratory phase.

[1] = alpha-2C antagonist alone, 90 min after bolus injection […] and start of infusion 0.005 μg/kg/h
[2] = 0 min (time point of i.v. bolus […] and start of infusion 0.005 μg/kg/h; baseline)
[3] = 30 min after i.v. bolus […] and start of infusion 0.005 μg/kg/h, alpha-2C antagonist alone
[4] = 60 min after i.v. bolus […] and start of infusion 0.005 μg/kg/h, alpha-2C antagonist alone
[5] = 90 min after i.v. bolus […] and start of infusion 0.005 μg/kg/h, time point of nasal application of TASK1/3 channel blocker
[6] = 0 min (time point of intranasal administration of 0.3 μg; baseline), TASK1/3 blocker alone
[7] = 10 min after intranasal administration of 0.3 μg, TASK1/3 blocker alone
[8] = 30 min after intranasal administration of 0.3 μg, TASK1/3 blocker alone
[9] = 60 min after intranasal administration of 0.3 μg, TASK1/3 blocker alone

COC[C@@]1(C)CCCN2CCc3c(oc4ccccc34)[C@@H]21 [(1S,12bS)-1-(methoxymethyl)-1-methyl-1,3,4,6,7,12b-hexahydro-2H-[1]benzofuro[2,3-a]quinolizine]
upper airway collapsibility at negative pressures of −50 cm head (cm H2O) [1]: only inhibited
upper airway collapsibility at negative pressures of −100 and −150 cm head (cm H2O) [1]: induced
effectiveness of dose on upper airway collapsibility (alpha-2C antagonist alone, i.v. bolus […] + infusion 0.005 μg/kg/h): non effective dose
inhibited upper airway collapsibility at all negative pressures of −50, −100 and −150 cm head (cm H2O) (alpha-2C antagonist alone, i.v. bolus […] followed by i.v. infusion 0.005 μg/kg/h for four hours): at no time point
Percent pigs without collaps −50 cm H2O, % [2]: 0%
Percent pigs without collaps −50 cm H2O, % [3]: 0%
Percent pigs without collaps −50 cm H2O, % [4]: 100%
Percent pigs without collaps −50 cm H2O, % [5]: 100%
Percent pigs without collaps −100 cm H2O, % [2]: 0%
Percent pigs without collaps −100 cm H2O, % [3]: 0%
Percent pigs without collaps −100 cm H2O, % [4]: 0%
Percent pigs without collaps −100 cm H2O, % [5]: 0%
Percent pigs without collaps −150 cm H2O, % [2]: 0%
Percent pigs without collaps −150 cm H2O, % [3]: 0%
Percent pigs without collaps −150 cm H2O, % [4]: 0%
Percent pigs without collaps −150 cm H2O, % [5]: 0%

COc1cccc(C(=O)N2CCN(Cc3c(-c4ccc(Cl)cc4)nc4ccccn34)CC2)n1 [(4-{[2-(4-Chlorophenyl)imidazo[1,2-a]pyridin-3-yl]methyl}piperazin-1-yl)(6-methoxypyridin-2-yl)methanone]
effectiveness of dose on upper airway collapsibility (TASK1/TASK3 channel blocker alone, 0.3 μg intranasal): non effective dose
Percent pigs without collaps −50 cm H2O, % [6]: 0%
Percent pigs without collaps −50 cm H2O, % [7]: 0%
Percent pigs without collaps −50 cm H2O, % [8]: 0%
Percent pigs without collaps −50 cm H2O, % [9]: 0%
Percent pigs without collaps −100 cm H2O, % [6]: 0%
Percent pigs without collaps −100 cm H2O, % [7]: 0%
Percent pigs without collaps −100 cm H2O, % [8]: 0%
Percent pigs without collaps −100 cm H2O, % [9]: 0%
Percent pigs without collaps −150 cm H2O, % [6]: 0%
Percent pigs without collaps −150 cm H2O, % [7]: 0%
Percent pigs without collaps −150 cm H2O, % [8]: 0%
Percent pigs without collaps −150 cm H2O, % [9]: 0%
